Results from DBAASP.
Values after ≈ are worked out from the molar mass of the structure shown. Blank lines part the entries; values can stand above or below the compound they belong to.

Assays:
Assay in all cases: ≥ marks a high value that may be exact or a test limit, other limits are often not marked, values filed in µg/mL are converted to µM
[1] = tested on: Bacillus subtilis ATCC 6633
[2] = tested on: Staphylococcus aureus FDA 209P
[3] = tested on: Bacillus anthracis Sterne 34F2
[4] = tested on: Bacillus subtilis var. niger ATCC 9372
[5] = tested on: Escherichia coli K91BK
[6] = tested on: Bacillus subtilis 168
[7] = tested on: Candida albicans F7-39/IDE99
[8] = tested on: Escherichia coli B
[9] = tested on: Micrococcus luteus CCM 144
[10] = tested on: Pseudomonas aeruginosa ATCC 27853
[11] = tested on: Pseudomonas aeruginosa
[12] = tested on: Staphylococcus aureus ATCC 43300
[13] = tested on: Staphylococcus aureus
[14] = tested on: Staphylococcus epidermidis
[15] = tested on: Bacillus megaterium Bm11
[16] = tested on: Escherichia coli ML-35
[17] = tested on: Escherichia coli
[18] = tested on: Proteus mirabilis
[19] = tested on: Salmonella enterica subsp. enterica serovar Typhimurium ATCC 14028
[20] = tested on: Staphylococcus aureus ATCC 25923
[21] = tested on: Escherichia coli DH5alpha
[22] = tested on: Klebsiella pneumoniae
[23] = tested on: Micrococcus luteus ATCC 9341
[24] = tested on: Salmonella typhimurium
[25] = tested on: Streptococcus mutans
[26] = tested on: Escherichia coli ATCC 25922
[27] = tested on: Klebsiella pneumoniae ATCC 10031
[28] = tested on: Micrococcus luteus ATCC 10240
[29] = tested on: Shigella dysenteriae ATCC 9752
[30] = tested on: Staphylococcus aureus ATCC 6538P
[31] = tested on: Staphylococcus epidermidis ATCC 12228
[32] = tested on: Burkholderia thailandensis

MIC [1]: ≥ 44.4 µM
MIC [2]: 30.7 µM (≈ 44.3 µg/mL)
SMILES: CC[C@H](C)[C@H](NC(=O)[C@H](C)NC(=O)CNC(=O)[C@H](Cc1ccccc1)NC(=O)[C@H](CC(C)C)NC(=O)[C@H](CC(C)C)NC(=O)[C@@H]1CCCN1C(=O)[C@H](CC(C)C)NC(=O)[C@@H](N)Cc1ccccc1)C(=O)N[C@@H](CO)C(=O)N[C@@H](Cc1cnc[nH]1)C(=O)N[C@@H](CC(C)C)C(=O)N[C@@H](CC(C)C)C(N)=O [FLPLLFGAISHLL]

SMILES: CC[C@H](C)[C@H](NC(=O)CNC(C)=O)C(=O)NCC(=O)N[C@@H](CCCCN)C(=O)N[C@@H](Cc1cnc[nH]1)C(=O)N[C@H](C(=O)NCC(=O)N[C@@H](CCCCN)C(=O)N[C@@H](C)C(=O)N[C@@H](CC(C)C)C(=O)N[C@@H](CCCCN)C(=O)NCC(=O)N[C@@H](CC(C)C)C(=O)N[C@@H](CCCCN)C(=O)NCC(=O)N[C@@H](CC(C)C)C(=O)N[C@@H](CC(C)C)C(=O)N[C@@H](CCCCN)C(=O)NCC(=O)N[C@@H](CC(C)C)C(=O)NCC(=O)N[C@@H](CCC(=O)O)C(=O)N[C@@H](CO)C(N)=O)C(C)C [GIGKHVGKALKGLKGLLKGLGES]
MIC [3]: ≥ 100 µM
MIC [4]: ≥ 100 µM
MIC [5]: ≥ 100 µM

MIC [6]: 7 µM (≈ 12.3 µg/mL)
MIC [7]: 23 µM (≈ 40.4 µg/mL)
MIC [8]: 30 µM (≈ 52.7 µg/mL)
MIC [9]: 3 µM (≈ 5.27 µg/mL)
MIC [10]: 26 µM (≈ 45.6 µg/mL)
MIC [11]: 47 µM (≈ 82.5 µg/mL)
MIC [12]: > 100 µM
MIC [13]: > 100 µM
MIC [14]: 16 µM (≈ 28.1 µg/mL)
SMILES: CC[C@H](C)[C@H](NC(=O)CN)C(=O)N[C@@H](CCSC)C(=O)N[C@@H](CO)C(=O)N[C@@H](CO)C(=O)N[C@@H](CC(C)C)C(=O)N[C@@H](CCSC)C(=O)N[C@@H](CCCCN)C(=O)N[C@@H](CCCCN)C(=O)N[C@@H](CC(C)C)C(=O)N[C@@H](CCCCN)C(=O)N[C@@H](C)C(=O)N[C@@H](Cc1cnc[nH]1)C(=O)N[C@H](C(=O)N[C@@H](C)C(=O)N[C@@H](CCCCN)C(N)=O)[C@@H](C)CC [GIMSSLMKKLKAHIAK]

MIC [15]: 1 µM (≈ 2.66 µg/mL)
MIC [16]: 4 µM (≈ 10.7 µg/mL)
MIC [17]: 4 µM (≈ 10.7 µg/mL)
MIC [18]: ≥ 32 µM
MIC [19]: 4 µM (≈ 10.7 µg/mL)
MIC [20]: 4 µM (≈ 10.7 µg/mL)
MIC [13]: 2 µM (≈ 5.33 µg/mL)
SMILES: CC[C@H](C)[C@H](NC(=O)[C@H](CCCCN)NC(=O)[C@H](CCCCN)NC(=O)[C@H](Cc1ccccc1)NC(=O)[C@H](CCCCN)NC(=O)[C@H](CCC(=O)O)NC(=O)CNC(=O)[C@@H](NC(=O)[C@H](CCCCN)NC(=O)[C@H](CCCCN)NC(=O)[C@H](CC(C)C)NC(=O)[C@H](Cc1ccccc1)NC(=O)[C@H](CC(=O)O)NC(=O)[C@H](CCCNC(=N)N)NC(=O)[C@H](CC(C)C)NC(=O)[C@H](CCCNC(=N)N)NC(=O)[C@H](CCCNC(=N)N)NC(=O)[C@H](CC(C)C)NC(=O)[C@H](CC(C)C)NC(=O)CN)[C@@H](C)CC)C(=O)NCC(=O)N[C@H](C=O)Cc1ccc(O)cc1 [GLLRRLRDFLKKIGEKFKKIGY]

MIC [21]: ≥ 35 µM
MIC [22]: 35 µM (≈ 65.8 µg/mL)
MIC [23]: 0.4 µM (≈ 0.752 µg/mL)
MIC [11]: 50 µM (≈ 94 µg/mL)
MIC [24]: ≥ 50 µM
SMILES: CC[C@H](C)[C@H](N)C(=O)N[C@@H](CC(C)C)C(=O)N[C@@H](C)C(=O)N[C@@H](Cc1c[nH]c2ccccc12)C(=O)N[C@@H](CCCCN)C(=O)N[C@@H](Cc1c[nH]c2ccccc12)C(=O)N1CCC[C@H]1C(=O)N[C@@H](Cc1c[nH]c2ccccc12)C(=O)N[C@@H](Cc1c[nH]c2ccccc12)C(=O)N1CCC[C@H]1C(=O)N[C@@H](Cc1c[nH]c2ccccc12)C(=O)N[C@@H](CCCN=C(N)N)C(=O)N[C@@H](CCCN=C(N)N)C(N)=O [ILAWKWPWWPWRR]

MIC [25]: ≥ 176 µM
SMILES: CC[C@H](C)[C@H](NC(=O)[C@H](CCC(N)=O)NC(=O)[C@H](CCCCN)NC(=O)[C@H](Cc1ccccc1)NC(=O)[C@@H](NC(=O)[C@H](CCC(N)=O)NC(=O)[C@H](CC(C)C)NC(=O)[C@H](CC(C)C)NC(=O)[C@@H](N)CCCCN)[C@@H](C)O)C(=O)N[C@@H](Cc1ccccc1)C(=O)N[C@@H](CCCN=C(N)N)C(=O)O [KLLQTFKQIFR]

MIC [1]: 1.16 µM (≈ 1.6 µg/mL)
MIC [26]: 36.2 µM (≈ 50 µg/mL)
MIC [27]: ≥ 36.2 µM
MIC [28]: 2.25 µM (≈ 3.1 µg/mL)
MIC [10]: > 145 µM
MIC [19]: > 145 µM
MIC [29]: 9.05 µM (≈ 12.5 µg/mL)
MIC [30]: 2.25 µM (≈ 3.1 µg/mL)
MIC [31]: 2.25 µM (≈ 3.1 µg/mL)
SMILES: CC(C)C[C@H](NC(=O)[C@H](CC(C)C)NC(=O)[C@H](CCCCN)NC(=O)[C@H](CC(C)C)NC(=O)[C@H](CC(C)C)NC(=O)[C@H](Cc1c[nH]c2ccccc12)NC(=O)[C@H](CCCCN)NC(=O)[C@H](CC(C)C)NC(=O)[C@H](CC(C)C)NC(=O)[C@H](CCCCN)NC(=O)[C@@H](N)CC(C)C)C(N)=O [LKLLKWLLKLL]

MIC [25]: ≥ 78.4 µM
SMILES: CC(C)C[C@H](NC(=O)[C@H](Cc1ccccc1)NC(=O)[C@H](Cc1cnc[nH]1)NC(=O)[C@H](Cc1ccc(O)cc1)NC(=O)[C@@H](N)CC(C)C)C(=O)N[C@@H](Cc1cnc[nH]1)C(=O)N[C@@H](Cc1c[nH]c2ccccc12)C(=O)N[C@@H](Cc1ccccc1)C(=O)N[C@@H](CCC(N)=O)C(=O)N[C@@H](CCCN=C(N)N)C(=O)N[C@@H](Cc1ccccc1)C(N)=O [LYHFLHWFQRF]

MIC [6]: 4.5 µM (≈ 6.32 µg/mL)
MIC [7]: 10.8 µM (≈ 15.2 µg/mL)
MIC [8]: 12.5 µM (≈ 17.6 µg/mL)
MIC [9]: 2.5 µM (≈ 3.51 µg/mL)
MIC [11]: > 100 µM
MIC [13]: 36.7 µM (≈ 51.6 µg/mL)
SMILES: CC[C@H](C)[C@H](NC(=O)CNC(=O)[C@H](C)NC(=O)[C@H](Cc1c[nH]c2ccccc12)NC(=O)[C@H](CC(C)C)NC(=O)[C@@H](N)CC(N)=O)C(=O)N[C@@H](CC(C)C)C(=O)N[C@@H](CCCCN)C(=O)N[C@@H](Cc1cnc[nH]1)C(=O)N[C@H](C(=O)N[C@H](C(=O)N[C@@H](CCCCN)C(N)=O)[C@@H](C)CC)[C@@H](C)CC [NLWAGILKHIIK]

SMILES: CC[C@H](C)[C@H](NC(=O)[C@H](CCCCN)NC(=O)[C@H](CCCN=C(N)N)NC(=O)CNC(=O)[C@H](CC(C)C)NC(=O)[C@H](CCCN=C(N)N)NC(=O)[C@H](CCCN=C(N)N)NC(=O)[C@H](CC(C)C)NC(=O)CNC(=O)[C@H](CCCN=C(N)N)NC(C)=O)C(=O)N[C@@H](C)C(=O)N[C@@H](Cc1cnc[nH]1)C(=O)NCC(=O)N[C@H](C(=O)N[C@@H](CCCCN)C(=O)N[C@@H](CCCCN)C(=O)NCC(=O)NCC(=O)N1CCC[C@H]1C(=O)N[C@H](C(=O)N[C@H](C(=O)N[C@@H](CC(C)C)C(=O)N[C@@H](CCCN=C(N)N)C(=O)N[C@H](C(=O)N[C@H](C(=O)N[C@@H](CCCN=C(N)N)C(=O)N[C@H](C(=O)N[C@@H](C)C(=O)NCC(N)=O)[C@@H](C)CC)[C@@H](C)CC)[C@@H](C)CC)C(C)C)[C@@H](C)O)C(C)C [RGLRRLGRKIAHGVKKGGPTVLRIIRIAG]
MIC [3]: ≥ 70.2 µM
MIC [4]: 7.87 µM (≈ 25.1 µg/mL)
MIC [32]: ≥ 100 µM
MIC [5]: ≥ 100 µM

SMILES: CC[C@H](C)[C@H](NC(=O)[C@H](CCCCN)NC(=O)[C@H](CCCN=C(N)N)NC(=O)[C@H](CCCCN)NC(=O)[C@H](CC(C)C)NC(=O)[C@H](CCCN=C(N)N)NC(=O)[C@H](CCCN=C(N)N)NC(=O)[C@H](CC(C)C)NC(=O)[C@H](CCCCN)NC(=O)[C@H](CCCN=C(N)N)NC(C)=O)C(=O)N[C@@H](C)C(=O)N[C@@H](Cc1cnc[nH]1)C(=O)N[C@@H](CCCCN)C(=O)N[C@H](C(=O)N[C@@H](CCCCN)C(=O)N[C@@H](CCCCN)C(=O)N[C@@H](Cc1ccc(O)cc1)C(N)=O)C(C)C [RKLRRLKRKIAHKVKKY]
MIC [3]: ≥ 100 µM
MIC [4]: ≥ 57.4 µM
MIC [32]: ≥ 100 µM
MIC [5]: ≥ 100 µM
